Experimental data: patent US20030060499A1, “Novel therapeutic method” (priority 1998, published 2003)
Structures can show the parent of a compound that is named as a salt.

What was measured:
Parkinson's patients = experiment: three year, international, multicentre, double-blind comparative clinical trial of ropinirole versus bromocriptine; format: in vivo, human; details: for patients considered responders (at least a 30% reduction from baseline in total motor examination score on the UPDRS): at the study's completion; for mean improvement in UPDRS motor score: three years
Description: In a three year, international, multicentre, double-blind comparative clinical trial, Parkinson's patients were randomised to receive either ropinirole (n=168) or bromocriptine (n=167). 33% of patients received selegiline concomitantly with either ropinirole or bromocriptine. Of those enrolled, 214 patients completed the study (approximately 39% of patients treated with ropinirole and 33% of patients treated with bromocriptine withdrew from the study). Efficacy was based on the following:
1 Mean Unified Parkinson's Disease Rating Scale (UPDRS) Activities of Daily Living (ADL) score (Part II) at completion
2 Improvement in UPDRS total motor examination score (Part III)
3 Percentage of patients who were considered responders, defined as those with at least a 30% reduction from baseline in total motor examination score on the UPDRS
4 Average combined ADL and motor score at endpoint
5 The percentage of patients who required supplemental levodopa therapy.

[1] = tested on: putamen dopaminergic function; experiment: 18 Fluoro-dopa PET scanning in five year, double-blind, multicentre study of ropinirole versus levodopa; format: in vivo, human; details: for loss of putamen dopaminergic function (mean percent change): all patients (Hoehn & Yahr I-III), approximately two years between scans, average of both sides of the brain; for loss of putamen dopaminergic function (mean percent change) / decrease in putamen dopaminergic function (mean percent change): 18 Fluoro-dopa PET; for decrease in putamen dopaminergic function (mean percent change): subgroup of patients with Parkinson's disease for less than 2 years
Description: In an ongoing five year, double-blind, multicentre study, patients with early Pakinson's disease (Hoehn & Yahr I-III) were randomised to receive either ropinirole or levodopa. Of those enrolled, 37 patients were scanned using 18 Fluoro-dopa PET scanning within the first year and then approximately two years later to measure the gradual decline in basal ganglia dopaminergic function. […] The following endpoints were assessed:
1 Mean percent change in putamen dopaminergic function in all patients (Hoehn & Yahr I-III)
2 Mean percent change in putamen dopaminergic function in Parkinson's disease patients with symptoms present for under two years
3 Mean percent change in putamen dopaminergic function in Parkinson's disease patients with symptoms present for more than two years

[2] = patients who completed the study

Row | Structure (SMILES) | patients considered responders (at least a 30% reduction from baseline in total motor examination score on the UPDRS) (Parkinson's patients) [%] | mean improvement in UPDRS motor score (Parkinson's patients; [2]) [%] | incidence of dyskinesias (Parkinson's patients; three year trial) [%] | patients who required supplemental levodopa (Parkinson's patients; three year trial) [%] | loss of putamen dopaminergic function (mean percent change) [1] [%] | decrease in putamen dopaminergic function (mean percent change) [1] [%] | average improvement in the combined ADL and motor scores versus bromocriptine (Parkinson's patients; at endpoint, p=0.018) | incidence of dyskinesias (Parkinson's patients; human, in vivo, 3 years) [%] | mean improvement in UPDRS ADL score versus bromocriptine (Parkinson's patients; patients who completed the study, p=0.009) | difference between treatment groups in change in putamen dopaminergic function ([1]; patients with Parkinson's disease for more than two years, ropinirole versus levodopa)
1 | CC(C)C[C@H]1C(=O)N2CCC[C@H]2[C@]2(O)O[C@](NC(=O)[C@@H]3C=C4c5cccc6[nH]c(Br)c(c56)C[C@H]4N(C)C3)(C(C)C)C(=O)N12 [bromocriptine] | 42 | 22 | 7 | 42 | – | – | – | – | – | –
2 | N[C@@H](Cc1ccc(O)c(O)c1)C(=O)O [levodopa] | – | – | – | – | 18 | 28 | – | – | – | –
3 | CCCN(CCC)CCc1cccc2c1CC(=O)N2 [ropinirole, 4-[2-(di-n-propylamino)ethyl]-1,3-dihydro-2H-indolin-2-one hydrochlorid] | 53 | 31 | – | 34 | 13 | 14 | statistically significantly greater | 8 | statistically significantly mean improvement | no statistically significant difference
